Assays:
Assay type in all cases: cell-based
[1] = system: MCF7 cells (ATCC #HTB-22); experiment: Cellular growth inhibition assay, MCF7 cells purchased from ATCC; conditions: Homo sapiens, MCF7, 144 h, Table 8-A; MCF7 cells purchased from ATCC; six days; CellTiter-Glo; read-out: GI50
In short: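 MCF7 cells in RPMI 1640 with 10% FBS and 0.2 U/ml insulin, seeded at 1,500 cells/well (ATCC) or 225 cells/well (ECACC). Compounds added 24 h later, then 6 days at 37° C. Viability by CellTiter-Glo 2.0 luminescence. GI50 from four-parameter fit.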

[2] = system: T-Rex 293 cells lacking increased expression of estrogen receptor alpha protein; experiment: Cellular growth inhibition assay, T-Rex 293 cells, (−) doxycycline; conditions: T-REx-293, 72 h, Table 7-A; T-Rex 293 cells without doxycycline (lacking increased ERα expression); 72 hours; CellTiter-Glo; read-out: (−) Dox GI50
In short: (§1)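 ERα overexpression was switched on by 3 ng/mL doxycycline in a stably transfected T-Rex 293 clone, while uninduced cells served as the comparison line. Proliferation over 72 h of compound treatment was assessed by ATP luminescence, and GI50 values came from four-parameter curves.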

[3] = system: T-Rex 293 cells having increased expression of estrogen receptor alpha protein; experiment: Cellular growth inhibition assay, T-Rex 293 cells, (+) doxycycline; conditions: T-REx-293, 72 h, Table 7-A; T-Rex 293 cells with doxycycline (increased ERα expression); 72 hours; CellTiter-Glo; read-out: (+) Dox GI50
In short: as §1

Row | SMILES | GI50 [1] | GI50 [2] | GI50 [3]
1 | Cc1sc2c(c1C)C(c1ccc(CC3CC4(CCN(c5ccc([C@@H]6c7ccc(O)cc7CC[C@@H]6c6ccccc6)cc5)CC4)C3)cc1)=N[C@@H](Cc1ncco1)c1nnc(C)n1-2 [I-62, (5R,6S)-6-phenyl-5-(4-(2-(4-((S)-2,3,9-trimethyl-6-(oxazol-2-ylmethyl)-6H-thieno[3,2-f][1,2,4]triazolo[4,3-a][1,4]diazepin-4-yl)benzyl)-7-azaspiro[3.5]nonan-7-yl)phenyl)-5,6,7,8-tetrahydronaphthalen-2-ol] | > 2500 nM | 500 to 2500 nM | 50 to 500 nM
2 | Cc1sc2c(c1C)C(c1ccc(N3CCN(CC4CCN(c5ccc([C@@H]6c7ccc(O)cc7CC[C@@H]6c6ccccc6)cc5)CC4)CC3)cc1)=N[C@H](Cc1ncco1)c1nnc(C)n1-2 [III-1, (5R,6S)-6-phenyl-5-(4-(4-((4-(4-((R)-2,3,9-trimethyl-6-(oxazol-2-ylmethyl)-6H-thieno[3,2-f][1,2,4]triazolo[4,3-a][1,4]diazepin-4-yl)phenyl)piperazin-1-yl)methyl)piperidin-1-yl)phenyl)-5,6,7,8-tetrahydronaphthalen-2-ol] | 500 to 2500 nM | > 2500 nM | > 2500 nM
3 | Cc1sc2c(c1C)C(c1ccc(N3CCN(CC4CCN(c5ccc([C@H]6c7ccc(O)cc7CC[C@H]6c6ccccc6)cc5)CC4)CC3)cc1)=N[C@H](Cc1ncco1)c1nnc(C)n1-2 [III-2, (5S,6R)-6-phenyl-5-(4-(4-((4-(4-((R)-2,3,9-trimethyl-6-(oxazol-2-ylmethyl)-6H-thieno[3,2-f][1,2,4]triazolo[4,3-a][1,4]diazepin-4-yl)phenyl)piperazin-1-yl)methyl)piperidin-1-yl)phenyl)-5,6,7,8-tetrahydronaphthalen-2-ol] | 500 to 2500 nM | > 2500 nM | > 2500 nM
4 | Cc1sc2c(c1C)C(c1ccc(N3CCN(CC4CCN(c5ccc([C@H]6c7ccc(O)cc7CC[C@H]6c6ccccc6)cc5)CC4)CC3)cc1)=N[C@@H](Cc1ncco1)c1nnc(C)n1-2 [III-3, (5S,6R)-6-phenyl-5-(4-(4-((4-(4-((S)-2,3,9-trimethyl-6-(oxazol-2-ylmethyl)-6H-thieno[3,2-f][1,2,4]triazolo[4,3-a][1,4]diazepin-4-yl)phenyl)piperazin-1-yl)methyl)piperidin-1-yl)phenyl)-5,6,7,8-tetrahydronaphthalen-2-ol] | 50 to 500 nM | 500 to 2500 nM | 50 to 500 nM
5 | Cc1sc2c(c1C)C(c1ccc(CC3CC4(CCN(c5ccc([C@@H]6c7ccc(O)cc7CC[C@@H]6c6ccccc6)cc5)CC4)C3)cc1)=N[C@H](Cc1ncco1)c1nnc(C)n1-2 [III-4, (5R,6S)-6-phenyl-5-(4-(2-(4-((R)-2,3,9-trimethyl-6-(oxazol-2-ylmethyl)-6H-thieno[3,2-f][1,2,4]triazolo[4,3-a][1,4]diazepin-4-yl)benzyl)-7-azaspiro[3.5]nonan-7-yl)phenyl)-5,6,7,8-tetrahydronaphthalen-2-ol] | > 2500 nM | > 2500 nM | 500 to 2500 nM
6 | Cc1sc2c(c1C)C(c1ccc(N3CCC(CN4CCN(c5ccc([C@@H]6c7ccc(O)cc7CC[C@@H]6c6ccccc6)cc5)CC4)CC3)cc1)=N[C@@H](C)c1nnc(C)n1-2 [III-5] | < 50 nM | 500 to 2500 nM | < 50 nM
7 | Cc1sc2c(c1C)C(c1ccc(N3CCC(CN4CCN(c5ccc([C@H]6c7ccc(O)cc7CC[C@H]6c6ccccc6)cc5)CC4)CC3)cc1)=N[C@@H](C)c1nnc(C)n1-2 [III-6] | 50 to 500 nM | 500 to 2500 nM | 50 to 500 nM
8 | Cc1sc2c(c1C)C(c1ccc(N3CCC(N4CC(Oc5ccc([C@@H]6c7ccc(O)cc7CC[C@@H]6c6ccccc6)cc5)C4)CC3)cc1)=N[C@@H](C)c1nnc(C)n1-2 [III-7] | 50 to 500 nM | 500 to 2500 nM | 50 to 500 nM
9 | Cc1sc2c(c1C)C(c1ccc(N3CCC(N4CC(Oc5ccc([C@H]6c7ccc(O)cc7CC[C@H]6c6ccccc6)cc5)C4)CC3)cc1)=N[C@@H](C)c1nnc(C)n1-2 [III-8] | 50 to 500 nM | 500 to 2500 nM | 500 to 2500 nM
10 | Cc1sc2c(c1C)C(c1ccc(N3CCC(CN4CC(COc5ccc([C@H]6c7ccc(O)cc7CC[C@H]6c6ccccc6)cc5)C4)CC3)cc1)=N[C@@H](C)c1nnc(C)n1-2 [III-9] | 50 to 500 nM | 50 to 500 nM | < 50 nM
11 | Cc1sc2c(c1C)C(c1ccc(N3CCC(CN4CC(COc5ccc([C@@H]6c7ccc(O)cc7CC[C@@H]6c6ccccc6)cc5)C4)CC3)cc1)=N[C@@H](C)c1nnc(C)n1-2 [III-10] | 50 to 500 nM | 50 to 500 nM | < 50 nM
12 | Cc1sc2c(c1C)C(c1ccc(N3CC4(CCN(CC5CCN(c6ccc([C@H]7c8ccc(O)cc8CC[C@H]7c7ccccc7)cc6)CC5)CC4)C3)cc1)=N[C@@H](C)c1nnc(C)n1-2 [III-11] | 50 to 500 nM | 50 to 500 nM | < 50 nM
13 | Cc1sc2c(c1C)C(c1ccc(N3CC4(CCN(CC5CCN(c6ccc([C@@H]7c8ccc(O)cc8CC[C@@H]7c7ccccc7)cc6)CC5)CC4)C3)cc1)=N[C@@H](C)c1nnc(C)n1-2 [III-12] | 50 to 500 nM | 500 to 2500 nM | < 50 nM
14 | Cc1sc2c(c1C)C(c1ccc(CC3CC4(CCCN(c5ccc([C@H]6c7ccc(O)cc7CC[C@H]6c6ccccc6)cc5)C4)C3)cc1)=N[C@@H](C)c1nnc(C)n1-2 (stereo partly drawn) [III-13] | 500 to 2500 nM | > 2500 nM | 500 to 2500 nM
15 | Cc1sc2c(c1C)C(c1ccc(CC3CC4(CCN(c5ccc([C@@H]6c7ccc(O)cc7CC[C@@H]6c6ccccc6)cc5)CC4)C3)cc1)=N[C@@H](C)c1nnc(C)n1-2 [III-14] | 500 to 2500 nM | 500 to 2500 nM | 50 to 500 nM
16 | Cc1sc2c(c1C)C(c1ccc(CC3CC4(CCN(c5ccc([C@H]6c7ccc(O)cc7CC[C@H]6c6ccccc6)cc5)CC4)C3)cc1)=N[C@@H](C)c1nnc(C)n1-2 [III-15] | 500 to 2500 nM | 500 to 2500 nM | 500 to 2500 nM
17 | Cc1sc2c(c1C)C(c1ccc(N3CCN(CCOc4ccc([C@@H]5c6ccc(O)cc6CC[C@@H]5c5ccccc5)cc4)CC3)cc1)=N[C@@H](C)c1nnc(C)n1-2 [III-16] | 50 to 500 nM | 50 to 500 nM | 50 to 500 nM
18 | Cc1sc2c(c1C)C(c1ccc(N3CCN(CCOc4ccc([C@H]5c6ccc(O)cc6CC[C@H]5c5ccccc5)cc4)CC3)cc1)=N[C@@H](C)c1nnc(C)n1-2 [III-17] | 500 to 2500 nM | 500 to 2500 nM | 500 to 2500 nM
19 | Cc1sc2c(c1C)C(c1ccc(C#CC3CC4(CCN(c5ccc([C@H]6c7ccc(O)cc7CC[C@H]6c6ccccc6)cc5)CC4)C3)cc1)=N[C@@H](C)c1nnc(C)n1-2 [III-18] | 500 to 2500 nM | > 2500 nM | > 2500 nM
20 | Cc1sc2c(c1C)C(c1ccc(C#CC3CC4(CCN(c5ccc([C@@H]6c7ccc(O)cc7CC[C@@H]6c6ccccc6)cc5)CC4)C3)cc1)=N[C@H](Cc1ncco1)c1nnc(C)n1-2 [III-19] | > 2500 nM | > 2500 nM | > 2500 nM
21 | Cc1sc2c(c1C)C(c1ccc(C#CC3CC4(CCN(c5ccc([C@H]6c7ccc(O)cc7CC[C@H]6c6ccccc6)cc5)CC4)C3)cc1)=N[C@H](Cc1ncco1)c1nnc(C)n1-2 [III-20] | > 2500 nM | > 2500 nM | > 2500 nM
22 | Cc1sc2c(c1C)C(c1ccc(C#CC3CC4(CCN(c5ccc([C@H]6c7ccc(O)cc7CC[C@H]6c6ccccc6)cc5)CC4)C3)cc1)=N[C@@H](Cc1ncco1)c1nnc(C)n1-2 [III-21] | 500 to 2500 nM | > 2500 nM | 500 to 2500 nM
23 | Cc1sc2c(c1C)C(c1ccc(C3CCN(C[C@@H]4[C@H]5CN(c6ccc([C@H]7c8ccc(O)cc8CC[C@H]7c7ccccc7)cc6)C[C@@H]45)CC3)cc1)=N[C@@H](C)c1nnc(C)n1-2 [III-22] | 50 to 500 nM | 500 to 2500 nM | < 50 nM
24 | Cc1sc2c(c1C)C(c1ccc(N3CCN(C[C@@H]4[C@H]5CN(c6ccc([C@@H]7c8ccc(O)cc8CC[C@@H]7c7ccccc7)cc6)C[C@@H]45)CC3)cc1)=N[C@@H](C)c1nnc(C)n1-2 [III-23] | 50 to 500 nM | > 2500 nM | < 50 nM
25 | Cc1sc2c(c1C)C(c1ccc(N3CCC(O)(CN4CCC(c5ccc([C@H]6c7ccc(O)cc7CC[C@H]6c6ccccc6)cc5)CC4)CC3)cc1)=N[C@@H](C)c1nnc(C)n1-2 [III-24] | 50 to 500 nM | 50 to 500 nM | < 50 nM
26 | Cc1sc2c(c1C)C(c1ccc(N3CCC(O)(CN4CCC(c5ccc([C@@H]6c7ccc(O)cc7CC[C@@H]6c6ccccc6)cc5)CC4)CC3)cc1)=N[C@@H](C)c1nnc(C)n1-2 [III-25] | < 50 nM | 500 to 2500 nM | < 50 nM
27 | Cc1sc2c(c1C)C(c1ccc(C3CCN(CC4(O)CCN(c5ccc([C@@H]6c7ccc(O)cc7CC[C@@H]6c6ccccc6)cc5)CC4)CC3)cc1)=N[C@@H](C)c1nnc(C)n1-2 [III-26] | 50 to 500 nM | 50 to 500 nM | < 50 nM
28 | Cc1sc2c(c1C)C(c1ccc(C3CCN(CC4(O)CCN(c5ccc([C@H]6c7ccc(O)cc7CC[C@H]6c6ccccc6)cc5)CC4)CC3)cc1)=N[C@@H](C)c1nnc(C)n1-2 [III-27] | 50 to 500 nM | 50 to 500 nM | < 50 nM
29 | Cc1sc2c(c1C)C(c1ccc(N[C@H]3CCN(CCOc4ccc([C@@H]5c6ccc(O)cc6CC[C@@H]5c5ccccc5)cc4)C3)cc1)=NC(Cc1ncco1)c1nnc(C)n1-2 (stereo partly drawn) [III-28] | 50 to 500 nM | 50 to 500 nM | 50 to 500 nM
